From patent publication US20130096212A1, “Method and a Kit to Predict Response to Antidepressant Treatment” (UNIVERSITY OF TARTU, priority 2011, published 2013)

Columns and labels:
[1] = system: outpatients with Major Depressive Disorder; assay: 12-week open-label escitalopram treatment of MDD outpatients, Estonian sample (MADRS, HAM-D, CGI), also by rs41271330 genotype; assay type: in vivo, human; conditions: for patients with moderate or severe depression (MADRS score 16 or more): end of 12 weeks
From the text: The study sample consisted of 135 outpatients with Major Depressive Disorder, MDD (mean age 31.1±11.6 years, 68% females) recruited at the Psychiatry Clinic of Tartu University Hospital in Estonia. The diagnosis according to DSM-IV criteria was verified using Mini International Neuropsychiatric Interview (M.I.N.I. 5.0.0) and substantiated by psychiatric history and medical records. At least moderate severity of depression was required for inclusion as indicated by a Montgomery-Asberg Depression Rating Scale (MADRS) total score of 22 or higher. MDD patients with a secondary current comorbid anxiety disorder were included in this study, except for obsessive-compulsive disorder, posttraumatic stress disorder, or panic disorder, and these comprised 51% of the sample. Patients were excluded if they met diagnostic criteria for any of the following: bipolar disorder, psychotic disorder or features, current eating disorders, mental retardation, any pervasive developmental disorder or cognitive disorder, or alcohol or drug abuse-related disorders within 12 months prior to baseline. Additional exclusion criteria were acute infections, neurological or any other unstable general disorders, serious suicide risk, formal behaviour therapy, or systematic psychotherapy, pregnancy or breastfeeding. None of patients was known to have a history of hypersensitivity or non-response to escitalopram or other SSRIs. The Human Studies Ethics Committee of the University of Tartu and State Agency of Medicines had approved the study protocol, which was in accordance with Declaration of Helsinki. All participants provided their written informed consent.
The patients were treated with escitalopram 10-20 mg/day for 12 weeks using an open-label, placebo non-controlled study design. No other medications, including anti-inflammatory drugs, were allowed during the study, except for hormonal contraceptives and zolpidem or zopiclone for insomnia. Clinical severity and treatment response were assessed bi-weekly using the MADRS and Clinical Global Impression scale (CGI). Hamilton Depression Scale (HAM-D) was also used as a secondary scale for clinical assessments. Additionally, the patients were asked to evaluate the depressive symptoms on the Beck Depression Inventory (BDI) and possible side effects on the Toronto Side-effect Scale (TSES) at each visit. All patients started treatment with escitalopram at a dose of 10 mg/day for the first 4 weeks. The patients showing at least 50% decline in the MADRS total score at week 4 continued taking 10 mg of escitalopram until the end of study. […] At the end of week 12 the patients were defined as responders if the decrease in both MADRS and HAM-D total scores was at least 50% and score on the CGI improvement scale was 2 or less. The remitters were defined if the scores were less than 12 on the MADRS and less than 8 on the HAM-D accordingly to earlier clinical trials. […] The severity of depressive symptoms and treatment response were rated blindly to genotypes by one psychiatrist. Each visit the patients were also asked to report about their regularity of taking the medication.
(§1) These 38 markers were genotyped in the remaining 116 individuals, and tested for association with the clinical outcome. Three different outcome definitions were used: MADRS score at the final visit (week 12), relative change (percentage) in MADRS score since baseline, and absolute change in MADRS score since baseline. For each outcome, a univariate additive regression model was fitted to assess the association, as well as a multivariate model, adjusted for age, gender, age at first depression episode, baseline MADRS and BDI scores. Additionally a mixed-effects longitudinal model was fit for MADRS scores at week 0 to week 12, using a random subject-specific intercept. Also here, both unadjusted and adjusted models were fit. […]

MDD patients = assay: Replication sample: MDD patients treated with escitalopram for 12 weeks, MADRS change by rs41271330 genotype; assay type: in vivo, human; conditions: 394 patients, SE=3%
From the text: as §1, with “Replication sample consisted of 394 patients treated with escitalopram for 12 weeks. All the patients were of European origin. […] For validation of significant markers from previous step 5 SNPs were genotyped with pre-designed Taqman assays and one SNP was genotyped with Sanger sequencing. These” for “These”, “fit. Age at recruitment, gender, age at first depression episode and baseline BDI score appeared to be independently predictive (p<0.05) for at least one of the outcomes after adjusting for other covariates in a multivariate regression model and were therefore used as adjustment variables for genotype-outcome association.” for “fit.”

CN(C)CCC[C@@]1(c2ccc(F)cc2)OCc2cc(C#N)ccc21 [escitalopram]
patients who discontinued treatment due to lack of efficacy or side effects ([1]; 12-week study): 6.7%
decrease of relative MADRS score reduction from baseline per copy of the rs41271330 minor allele ([1]; Estonian sample, 116 patients, SE=6%): 18%
patients who needed an increased dose after the initial 4 weeks ([1]; carriers of rs41271330 minor allele): 88.9%
patients with moderate or severe depression (MADRS score 16 or more) ([1]; carriers of rs41271330 minor allele (A), 14/27): 52%
patients with moderate or severe depression (MADRS score 16 or more) ([1]; homozygous for rs41271330 major allele (G), 19/89): 22%
patients with insufficient or partial response to treatment ([1]; end of week 12): 32.6%
patients defined as responders ([1]; end of week 12, 10-20 mg/day, 135 MDD outpatients, at least 50% decrease in MADRS and HAM-D and CGI improvement 2 or less): 60.7%
patients who achieved remission ([1]; end of week 12, MADRS less than 12 and HAM-D less than 8, of total sample): 58.5%
patients who needed an increased dose after the initial 4 weeks ([1]; homozygous for rs41271330 major allele): 62.9%
responders among the patients whose daily dose was increased and kept at 20 mg ([1]; of 85 patients on 20 mg, end of study): 41 patients
number of patients with MADRS score at week 12 of 0...7 ([1]; rs41271330 A/G + A/A): 9
number of patients with MADRS score at week 12 of 8...15 ([1]; rs41271330 A/G + A/A): 4
number of patients with MADRS score at week 12 of 16...25 ([1]; rs41271330 A/G + A/A): 10
number of patients with MADRS score at week 12 of >25 ([1]; rs41271330 A/G + A/A): 4
share of patients with MADRS score at week 12 of 0...7 ([1]; rs41271330 A/G + A/A): 33%
share of patients with MADRS score at week 12 of 8...15 ([1]; rs41271330 A/G + A/A): 15%
share of patients with MADRS score at week 12 of 16...25 ([1]; rs41271330 A/G + A/A): 37%
share of patients with MADRS score at week 12 of >25 ([1]; rs41271330 A/G + A/A): 15%
number of patients with MADRS score at week 12 of 0...7 ([1]; rs41271330 G/G): 61
number of patients with MADRS score at week 12 of 8...15 ([1]; rs41271330 G/G): 9
number of patients with MADRS score at week 12 of 16...25 ([1]; rs41271330 G/G): 15
number of patients with MADRS score at week 12 of >25 ([1]; rs41271330 G/G): 4
share of patients with MADRS score at week 12 of 0...7 ([1]; rs41271330 G/G): 69%
share of patients with MADRS score at week 12 of 8...15 ([1]; rs41271330 G/G): 10%
share of patients with MADRS score at week 12 of 16...25 ([1]; rs41271330 G/G): 17%
share of patients with MADRS score at week 12 of >25 ([1]; rs41271330 G/G): 4%
decrease of relative MADRS score reduction from baseline per copy of the rs41271330 minor allele (MDD patients): 7%
